# Reference: patent US10239882B2, “Substituted 5-methyl-[1,2,4]triazolo[1,5-a]pyrimidin-2-amine compounds as PDE2 inhibitors” (DART NEUROSCIENCE (CAYMAN) LTD., priority 2014, dated 2019)
# Target: FLAG-tagged PDE2A1 (amino acids 2-941) (Homo sapiens (Human), UniProt O00408)
# Assay: IMAP TR-FRET PDE2A enzymatic assay
# Type: biochemical
# Details: 200 nM FAM-cAMP substrate, 11-point half-log dose-response
# Text: An IMAP TR-FRET-based phosphodiesterase assay was developed using the PDE2A isoform. IMAP technology is based on high-affinity binding of phosphate by immobilized metal (MIII) coordination complexes on nanoparticles. The IMAP “binding reagent” recognizes phosphate groups on AMP or GMP generated from cAMP or cGMP in a PDE reaction. Cyclic nucleotides that carry a phosphodiester bond and not a free phosphate are not recognized by the binding reagent. The time resolved fluorescence resonance energy transfer (TR-FRET) is afforded by a Terbium (Tb)-Donor pre-bound to the nanoparticles. FRET occurs when the fluorescent-labeled AMP or GMP product of a PDE reaction binds and comes into close proximity to the Tb-Donor complex. Due to the long lifetime of Tb fluorescence, detection can be run in time-resolved mode to reduce or eliminate interference from auto-fluorescent compounds.
# The IMAP TR-FRET PDE2A assay was performed in 1536-well white plates. A total of 250 pg per well of FLAG-tagged PDE2A1 (amino acids 2-941) was dispensed in 2.5 μL IMAP assay buffer consisting of 10 mM Tris pH 7.2, 10 mM MgCl2, 1 mM DTT, and 0.1% fatty acid free BSA. 30 nL of compound was then added from 1 mM stocks in DMSO using a Kalypsys Pintool. Plates were incubated for 5 min at room temperature before dispensing 1.5 μL of 533 nM FAM-cAMP substrate for a final concentration of 200 nM. Following a brief centrifugation, plates were incubated for 30 min at room temperature. The assay was terminated by adding 5 μL IMAP binding reagent Tb complex to each well which was prepared according to manufacturer's recommendations (Molecular Devices). Plates were incubated an additional 90 minutes at room temperature and read on a Viewlux plate reader. All compounds were solvated at a concentration of 10 mM in DMSO and tested in 11-point half-log dose-response. Curve fitting and IC50 values were determined using a standard four parameter fit.
# FLAG-tagged PDE2A1 (amino acids 2-941), sequence (O00408 2-941): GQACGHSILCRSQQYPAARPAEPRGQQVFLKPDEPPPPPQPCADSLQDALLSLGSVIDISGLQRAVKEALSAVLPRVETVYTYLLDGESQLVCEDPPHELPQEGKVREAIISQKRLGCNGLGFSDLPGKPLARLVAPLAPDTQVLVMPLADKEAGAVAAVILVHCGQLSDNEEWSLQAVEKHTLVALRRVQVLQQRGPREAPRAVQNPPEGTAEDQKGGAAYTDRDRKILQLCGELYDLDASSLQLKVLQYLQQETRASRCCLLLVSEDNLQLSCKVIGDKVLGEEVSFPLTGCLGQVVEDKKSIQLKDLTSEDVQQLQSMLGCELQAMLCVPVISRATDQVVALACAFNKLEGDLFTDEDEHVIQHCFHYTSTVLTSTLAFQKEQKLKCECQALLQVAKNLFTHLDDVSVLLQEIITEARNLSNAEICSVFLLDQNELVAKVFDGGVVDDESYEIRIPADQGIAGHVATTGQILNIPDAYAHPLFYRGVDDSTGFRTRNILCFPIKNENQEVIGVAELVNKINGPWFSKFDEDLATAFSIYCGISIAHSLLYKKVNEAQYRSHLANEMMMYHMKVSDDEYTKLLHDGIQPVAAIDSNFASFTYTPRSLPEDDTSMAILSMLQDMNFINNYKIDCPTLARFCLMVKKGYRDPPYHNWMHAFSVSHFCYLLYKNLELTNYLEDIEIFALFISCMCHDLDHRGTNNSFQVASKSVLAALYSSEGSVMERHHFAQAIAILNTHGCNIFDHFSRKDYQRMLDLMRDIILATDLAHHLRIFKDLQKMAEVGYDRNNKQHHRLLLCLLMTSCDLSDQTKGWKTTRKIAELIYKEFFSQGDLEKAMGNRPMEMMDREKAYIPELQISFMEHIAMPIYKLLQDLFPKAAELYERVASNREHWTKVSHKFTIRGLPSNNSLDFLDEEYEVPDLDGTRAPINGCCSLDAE
row,Compound,PDE2 (PIC50)
1,"Cc1cc(C2CCOCC2)n2nc(NCc3cccc(C(F)(F)F)c3)nc2n1 [Example 41, 5-Methyl-7-(oxan-4-yl)-N-{[3-(trifluoromethyl)phenyl]methyl}-[1,2,4]triazolo[1,5-a]pyrimidine-2-amine]",>7
2,"Cc1cc(C2CCOCC2)n2nc(NCc3cn(C(C)C)nc3C)nc2n1 [Example 66, 5-Methyl-N-{[3-methyl-1-(propan-2-yl)-1H-pyrazol-4-yl]methyl}-7-(oxan-4-yl)-[1,2,4]triazolo[1,5-a]pyrimidin-2-amine]",>7
3,"CC(=O)N1CCC(c2cc(C)nc3nc(NCc4cccc(C(F)F)c4)nn23)CC1 [Example 20, 1-{4-[2-({[3-(Difluoromethyl)phenyl]methyl}amino)-5-methyl-[1,2,4]triazolo[1,5-a]pyrimidin-7-yl]piperidin-1-yl}ethan-1-one]",>7
4,"Cc1cc(C2CCOCC2)n2nc(NCc3ccnc4ccccc34)nc2n1 [Example 60, 5-Methyl-7-(oxan-4-yl)-N-(quinolin-4-ylmethyl)-[1,2,4]triazolo[1,5-a]pyrimidin-2-amine]",>7
5,"Cc1cc(C2(C)CCOCC2)n2nc(NCc3cnn(-c4ccccc4)c3)nc2n1 [Example 62, 5-Methyl-7-(4-methyloxan-4-yl)-N-[(1-phenyl-1H-pyrazol-4-yl)methyl]-[1,2,4]triazolo[1,5-a]pyrimidin-2-amine]",>7
6,"COc1cccc(-n2cc(CNc3nc4nc(C)cc(C5CCOCC5)n4n3)cn2)c1 [Example 31, N-{[1-(3-Methoxyphenyl)-1H-pyrazol-4-yl]methyl}-5-methyl-7-(oxan-4-yl)-[1,2,4]triazolo[1,5-a]pyrimidin-2-amine]",>7
7,"COc1ccc(CNc2nc3nc(C)cc(C4CCOCC4)n3n2)cc1Cl [Example 21, N-[(3-Chloro-4-methoxyphenyl)methyl]-5-methyl-7-(oxan-4-yl)-[1,2,4]triazolo[1,5-a]pyrimidin-2-amine]",>7
8,"Cc1cc(C2CCOCC2)n2nc(NCc3cc(Cl)c(F)cc3F)nc2n1 [Example 80, N-[(5-Chloro-2,4-difluorophenyl)methyl]-5-methyl-7-(oxan-4-yl)-[1,2,4]triazolo[1,5-a]pyrimidin-2-amine]",>7
9,"COc1ccc(CNc2nc3nc(C)cc(C4CCCOC4)n3n2)cc1 (stereo not drawn) [Example 38, N-[(4-Methoxyphenyl)methyl]-5-methyl-7-(oxan-3-yl)-[1,2,4]triazolo[1,5-a]pyrimidin-2-amine]",>7
10,"COc1ccc(CNc2nc3nc(CF)cc(C4CCOCC4)n3n2)cc1 [Example 30, 5-(Fluoromethyl)-N-[(4-methoxyphenyl)methyl]-7-(oxan-4-yl)-[1,2,4]triazolo[1,5-a]pyrimidin-2-amine]",>7
11,"Cc1cc(C2CCOCC2)n2nc(NCc3cccc(Cl)c3)nc2n1 [Example 40, N-[(3-Chlorophenyl)methyl]-5-methyl-7-(oxan-4-yl)-[1,2,4]triazolo[1,5-a]pyrimidin-2-amine]",>7
12,"Cc1cc(C(C)C)n2nc(NCc3cn(-c4ccccc4)nc3C)nc2n1 [Example 74, 5-Methyl-N-[(3-methyl-1-phenyl-H-pyrazol-4-yl)methyl]-7-(propan-2-yl)-[1,2,4]triazolo[1,5-a]pyrimidin-2-amine]",>7
13,"Cc1cc(C2CCOCC2)n2nc(NCc3cc(Cl)ccc3F)nc2n1 [Example 13, N-(5-Chloro-2-fluorobenzyl)-5-methyl-7-(tetrahydro-2H-pyran-4-yl)-[1,2,4]triazolo[1,5-a]pyrimidin-2-amine]",>7
14,"COc1ccc(CNc2nc3nc(C)cc(C4CCOCC4)n3n2)c(F)c1 [Example 15, N-[(2-Fluoro-4-methoxyphenyl)methyl]-5-methyl-7-(oxan-4-yl)-[1,2,4]triazolo[1,5-a]pyrimidin-2-amine]",>7
15,"Cc1cc(C2CCOCC2)n2nc(NCc3cccc(C(F)F)c3)nc2n1 [Example 23, N-{[3-(Difluoromethyl)phenyl]methyl}-5-methyl-7-(oxan-4-yl)-[1,2,4]triazolo[1,5-a]pyrimidin-2-amine]",>7
16,"Cc1cc(C2CCOCC2)n2nc(NCc3ccnc(C(F)(F)F)c3)nc2n1 [Example 59, 5-Methyl-7-(oxan-4-yl)-N-{[2-(trifluoromethyl)pyridin-4-yl]methyl}-[1,2,4]triazolo[1,5-a]pyrimidin-2-amine]",>7

# Same assay, conditions: 200 nM FAM-cAMP substrate, 11-point half-log dose-response, read-out: PDE2 (PIC50)
row,Compound,IC50 [nM]
1,"COc1ccc(CNc2nc3nc(C)cc(C4CCCO4)n3n2)cc1 (stereo not drawn) [Example 12, N-(4-Methoxybenzyl)-5-methyl-7-(tetrahydrofuran-2-yl)-[1,2,4]triazolo[1,5-a]pyrimidin-2-amine]",1000 to 10000
2,"COc1ccc(CNc2nc3nc(C)cc(C4CCN(C(C)=O)CC4)n3n2)cc1 [Example 18, 1-[4-(2-[(4-Methoxyphenyl)methyl]amino-5-methyl-[1,2,4]triazolo[1,5-a]pyrimidin-7-yl)piperidin-1-yl]ethan-1-one]",100 to 1000
3,"Cc1cc(C2CCOCC2)n2nc(NCc3c(F)cncc3F)nc2n1 [Example 70, N-[(3,5-Difluoropyridin-4-yl)methyl]-5-methyl-7-(oxan-4-yl)-[1,2,4]triazolo[1,5-a]pyrimidin-2-amine]",100 to 1000
4,"Cc1ccc(F)c(CNc2nc3nc(C)cc(C4CCOCC4)n3n2)c1 [Example 27, N-[(2-Fluoro-5-methylphenyl)methyl]-5-methyl-7-(oxan-4-yl)-[1,2,4]triazolo[1,5-a]pyrimidin-2-amine]",100 to 1000
5,"Cc1cc(C2CCOCC2)n2nc(NCc3ccccc3Cl)nc2n1 [Example 48, N-[(2-Chlorophenyl)methyl]-5-methyl-7-(oxan-4-yl)-[1,2,4]triazolo[1,5-a]pyrimidin-2-amine]",100 to 1000
6,"COc1ccc(F)c(CNc2nc3nc(C)cc(C4CCOCC4)n3n2)c1 [Example 32, N-[(2-Fluoro-5-methoxyphenyl)methyl]-5-methyl-7-(oxan-4-yl)-[1,2,4]triazolo[1,5-a]pyrimidin-2-amine]",100 to 1000
7,"COc1ccc(CNc2nc3nc(C)cc(C4CC4)n3n2)cc1 [Example 4, 7-Cyclopropyl-N-(4-methoxybenzyl)-5-methyl-[1,2,4]triazolo[1,5-a]pyrimidin-2-amine]",1000 to 10000
8,"Cc1cc(C2CCOCC2)n2nc(NCc3ccc(F)cc3)nc2n1 [Example 57, N-[(4-Fluorophenyl)methyl]-5-methyl-7-(oxan-4-yl)-[1,2,4]triazolo[1,5-a]pyrimidin-2-amine]",100 to 1000
9,"COc1ccc([C@H](C)Nc2nc3nc(C)cc(C4CCOCC4)n3n2)cc1 [Example 69, N-[(1S)-1-(4-Methoxyphenyl)ethyl]-5-methyl-7-(oxan-4-yl)-[1,2,4]triazolo[1,5-a]pyrimidin-2-amine]",1000 to 10000
10,"COc1ccc(CNc2nc3nc(C)cc(C(C)C)n3n2)cc1 [Example 10, 7-Isopropyl-N-(4-methoxybenzyl)-5-methyl-[1,2,4]triazolo[1,5-a]pyrimidin-2-amine]",1000 to 10000
11,"Cc1cc(C2CCOCC2)n2nc(NCc3ccccc3F)nc2n1 [Example 26, N-[(2-Fluorophenyl)methyl]-5-methyl-7-(oxan-4-yl)-[1,2,4]triazolo[1,5-a]pyrimidin-2-amine]",100 to 1000
12,"Cc1cc(C2CC2)n2nc(NCc3cn(-c4ccccc4)nc3C)nc2n1 [Example 63, 7-Cyclopropyl-5-methyl-N-[(3-methyl-1-phenyl-1H-pyrazol-4-yl)methyl]-[1,2,4]triazolo[1,5-a]pyrimidin-2-amine]",100 to 1000
13,"Cc1cc(C2CC2)n2nc(NCc3ccc4c(c3)OCC4)nc2n1 [Example 3, 7-Cyclopropyl-N-((2,3-dihydrobenzofuran-6-yl)methyl)-5-methyl-[1,2,4]triazolo[1,5-a]pyrimidin-2-amine]",1000 to 10000
14,"Cc1cc(C2CCOCC2)n2nc(NCc3c(F)cccc3F)nc2n1 [Example 51, N-[(2,6-Difluorophenyl)methyl]-5-methyl-7-(oxan-4-yl)-[1,2,4]triazolo[1,5-a]pyrimidin-2-amine]",100 to 1000
15,"Cc1cc(C2CCOCC2)n2nc(NCc3ccc4c(c3)OC(F)(F)O4)nc2n1 [Example 45, N-[(2,2-Difluoro-2H-1,3-benzodioxol-5-yl)methyl]-5-methyl-7-(oxan-4-yl)-[1,2,4]triazolo[1,5-a]pyrimidin-2-amine]",100 to 1000
16,"Cc1cc(C2CCOCC2)n2nc(NCc3cn(CC(F)F)nc3C)nc2n1 [Example 65, N-{[1-(2,2-Difluoroethyl)-3-methyl-1H-pyrazol-4-yl]methyl}-5-methyl-7-(oxan-4-yl)-[1,2,4]triazolo[1,5-a]pyrimidin-2-amine]",100 to 1000
17,"Cc1cc(C2CCOCC2)n2nc(NCc3ccc4c(c3)OCCO4)nc2n1 [Example 16, N-(2,3-Dihydro-1,4-benzodioxin-6-ylmethyl)-5-methyl-7-(oxan-4-yl)-[1,2,4]triazolo[1,5-a]pyrimidin-2-amine]",100 to 1000
